Source: paper PMC6017090, “Design, Synthesis and Biological Evaluation of Novel N-Pyridyl-Hydrazone Derivatives as Potential Monoamine Oxidase (MAO) Inhibitors” (Molecules : A Journal of Synthetic Chemistry and Natural …, 2018)
pIC50: −log10 of the molar value.

Experiments:
human recombinant MAO-B = target: T1, human recombinant MAO-B (Homo sapiens, UniProt P27338); test: MAO activity assay (fluorometric, kynuramine substrate), MAO-B; assay type: biochemical; conditions: 10^−3 M; ± S.D.
T1 construct: purchased Sigma-Aldrich
T1 sequence (P27338 1-520): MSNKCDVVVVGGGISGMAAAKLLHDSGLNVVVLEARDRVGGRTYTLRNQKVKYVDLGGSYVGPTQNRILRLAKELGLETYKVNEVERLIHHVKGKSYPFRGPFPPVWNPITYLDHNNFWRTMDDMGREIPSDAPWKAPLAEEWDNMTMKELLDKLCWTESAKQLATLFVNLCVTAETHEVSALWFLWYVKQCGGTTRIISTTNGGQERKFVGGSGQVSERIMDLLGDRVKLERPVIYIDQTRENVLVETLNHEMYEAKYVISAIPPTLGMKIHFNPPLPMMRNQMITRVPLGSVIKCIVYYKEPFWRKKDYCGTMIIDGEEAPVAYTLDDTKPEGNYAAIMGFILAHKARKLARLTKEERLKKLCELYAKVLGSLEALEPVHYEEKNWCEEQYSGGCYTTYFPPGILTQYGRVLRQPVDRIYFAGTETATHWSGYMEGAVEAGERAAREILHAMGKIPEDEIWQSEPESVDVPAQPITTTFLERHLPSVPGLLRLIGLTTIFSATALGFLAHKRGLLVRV
Procedure: (§1) The enzyme activity assay was performed in accordance with the procedure reported by Matsumoto et al. with slight modifications. All materials used in the enzymatic assays were purchased from Sigma-Aldrich Chemicals. All pipetting protocols in the assay were performed by the Biotek Precision robotic system (BioTek Instruments, Inc., Winooski, VT, USA). To prevent the effect of light MAO enzymes, the assay was performed in 96-well black plates. Phosphate buffer (0.1 M, pH = 7.4) was used for the preparation of 5 mg/mL stock solutions of the human recombinant MAO-A and MAO-B enzymes. The enzyme stock solutions were further diluted with an assay buffer to obtain final concentrations of 0.006 mg/mL MAO-A and 0.015 mg/mL MAO-B. Kynuramine was dissolved in sterilized distilled water to obtain a 25 mM stock solution and then diluted with the assay buffer to obtain final concentrations of 40 μM for the MAO-A enzyme and 20 μM for the MAO-B enzyme. […] The addition of the diluted compounds was followed by the addition of either the MAO-A or MAO-B enzymes (50 μL/well). […] Fluorescence was read from top by using BioTek-Synergy H1 multimode microplate reader at the excitation/emission wavelengths of 310 and 380 nm.
(§2) The IC50 values (Table 2) were calculated from the plots of enzyme activity against concentrations, and the regression analyses were computed in GraphPad Prism Version 6 (GraphPad Software, Inc., La Jolla, CA, USA).

MAO-A enzyme = target: T2, MAO-A enzyme (Homo sapiens, UniProt P21397); test: MAO activity assay (fluorometric, kynuramine substrate), MAO-A; assay type: biochemical
T2 construct: purchased Sigma-Aldrich
T2 sequence (P21397 1-527): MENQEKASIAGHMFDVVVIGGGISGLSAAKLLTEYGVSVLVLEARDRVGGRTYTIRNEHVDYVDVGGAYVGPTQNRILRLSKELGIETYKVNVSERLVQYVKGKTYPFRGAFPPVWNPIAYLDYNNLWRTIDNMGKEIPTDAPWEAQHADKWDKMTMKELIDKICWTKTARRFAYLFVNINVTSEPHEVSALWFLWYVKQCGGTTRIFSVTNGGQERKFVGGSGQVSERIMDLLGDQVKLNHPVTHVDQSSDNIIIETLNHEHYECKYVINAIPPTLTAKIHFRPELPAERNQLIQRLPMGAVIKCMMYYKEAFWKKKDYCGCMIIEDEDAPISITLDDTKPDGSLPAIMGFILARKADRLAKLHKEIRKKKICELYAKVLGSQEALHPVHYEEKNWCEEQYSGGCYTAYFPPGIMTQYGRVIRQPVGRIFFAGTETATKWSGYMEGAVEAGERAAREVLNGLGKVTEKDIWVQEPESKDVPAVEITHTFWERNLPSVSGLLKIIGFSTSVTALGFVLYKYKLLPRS
Procedure: as §1, with “Phosphate buffer (0.1 M, pH = 7.4) was used for the preparation of 5 mg/mL stock solutions of the human recombinant MAO-A and MAO-B enzymes.” left out
as §2

[1] = tested on: NIH/3T3 mouse embryonic fibroblast cells
Procedure: The MTT assay was performed as previously described [21, 22, 23, 24, 25, 26].

Compound: CCOc1ccc([N+](=O)[O-])c(NN=Cc2ccccn2)n1 [Compound 2n, 6-Ethoxy-3-nitro-2[(2-(pyridine-2-yl)methylene)hydrazinyl]pyridine]
- MAO-B Inhibition % (human recombinant MAO-B): 42.00 ± 1.21%
- pIC50 (MAO-A enzyme): 5.02
- MAO-A Inhibition % (MAO-A enzyme; 10^−3 M, ± S.D.): 72.07 ± 1.56%
- MAO-A Inhibition % (MAO-A enzyme; 10^−4 M, ± S.D.): 56.90 ± 1.50%
- MAO-A Inhibition % (MAO-A enzyme; 10^−5 M): 42.13 ± 1.22%
- MAO-A Inhibition % (MAO-A enzyme; 10^−6 M): 35.11 ± 1.18%
- MAO-A Inhibition % (MAO-A enzyme; 10^−7 M): 24.96 ± 0.83%
- MAO-A Inhibition % (MAO-A enzyme; 10^−8 M): 18.02 ± 0.77%
- MAO-A Inhibition % (MAO-A enzyme; 10^−9 M): 10.40 ± 0.29%
- pIC50 [1]: < 3.00
